Data: ChEMBL document CHEMBL3832036, “Goodman and Gilman Ed. 12 | The Pharmaceutical Basis of Therapeutics| Table AII-I: Pharmacokinetic Data” (2011)

Columns and labels:
[1] = test system: Homo sapiens; assay: Pharmacokinetic parameters for diffferent drugs or their active metabolite, following single oral or intravenous (IV) administration to subjects of different health conditions.; format: ADME, organism-based; parameters: dose 50 mg, dose 10 mg, route oral; conditions: in vivo
[2] = test system: Homo sapiens; assay: Pharmacokinetic parameters for different drugs, or their active metabolite following multiple oral or intravenous administration to subjects of varying health conditions.; format: ADME, organism-based; parameters: dose 30 mg, dose 135 mg, route oral; conditions: in vivo
[3] = iv, dosed compound id 67, dosed compound name AZATHIOPRINE, regimen Single dose, tissue Plasma
[4] = po, dose 10 mg, dosed compound id 63, dosed compound name BACLOFEN, gender male, regimen Single dose, tissue Plasma
[5] = po, dosed compound id 63, dosed compound name BACLOFEN, gender male, regimen Single dose, tissue Plasma
[6] = po, dosed compound id 66, dosed compound name CHLORTHALIDONE, regimen Single dose, tissue Plasma
[7] = po, dosed compound id 69, dosed compound name IRBESARTAN, gender male, regimen Single dose, tissue Plasma

Cn1cnc([N+](=O)[O-])c1Sc1ncnc2nc[nH]c12 [AZATHIOPRINE]
CL [1, 3]: 57 mL/min/kg
Vd [1, 3]: 0.81 L/kg
t1/2 [1, 3]: 0.16 h

NCC(CC(=O)O)c1ccc(Cl)cc1 (configuration not stated) [BACLOFEN]
Vd ([1]; other, dosed compound id 63, dosed compound name BACLOFEN, gender male, regimen Single dose, route intestinal infusion, tissue Plasma): 0.81 L/kg
CL ([1]; other, dosed compound id 63, dosed compound name BACLOFEN, gender male, regimen Single dose, route intestinal infusion, tissue Urine): 2.72 mL/min/kg
Tmax [1, 4]: 1 h
t1/2 [1, 4]: 3.75 h
Cmax [1, 5]: 160 ng/mL
F [1, 5]: 70%

NS(=O)(=O)c1cc(C2(O)NC(=O)c3ccccc32)ccc1Cl (configuration not stated) [CHLORTHALIDONE]
Excretion ([1]; po, at 50 mg, dosed compound id 66, dosed compound name CHLORTHALIDONE, regimen Single dose, tissue Urine): 65%
Tmax ([1]; po, dose 50 mg, dosed compound id 66, dosed compound name CHLORTHALIDONE, regimen Single dose, tissue Plasma): 13.8 h
t1/2 ([1]; po, dosed compound id 66, dosed compound name CHLORTHALIDONE, regimen Single dose, tissue Blood): 47 h
CL [1, 6]: 0.04 mL/min/kg
Cmax [1, 6]: 3700 ng/mL
F [1, 6]: 64%
Vd [1, 6]: 0.14 L/kg

CCCCC1=NC2(CCCC2)C(=O)N1Cc1ccc(-c2ccccc2-c2nnn[nH]2)cc1 [IRBESARTAN]
Tmax ([1]; po, dose 50 mg, dosed compound id 69, dosed compound name IRBESARTAN, gender male, regimen Single dose, tissue Plasma): 1.2 h
CL [1, 7]: 2.12 mL/min/kg
Cmax [1, 7]: 1300 ng/mL
Vd [1, 7]: 2.9 L/kg
bioavailability [1, 7]: 60 to 80%
t1/2 [1, 7]: 13 h
Excretion ([1]; po, dosed compound id 69, dosed compound name IRBESARTAN, gender male, regimen Single dose, tissue Urine): 2.2%

Sc1ncnc2nc[nH]c12 [MERCAPTOPURINE ANHYDROUS]
Tmax ([2]; dose 135 mg, dosed compound id 621, dosed compound name AZATHIOPRINE, regimen Once daily, route oral, tissue Plasma): 1 to 2 h
Cmax ([2]; dosed compound id 621, dosed compound name AZATHIOPRINE, regimen Once daily, tissue Plasma): 20 to 90 ng/mL
F ([1]; po, dosed compound id 621, dosed compound name AZATHIOPRINE, regimen Single dose, tissue Plasma): 60%

C[C@]12C=CC(=O)C=C1CC[C@@H]1[C@@H]2[C@@H](O)C[C@@]2(C)[C@H]1CC[C@]2(O)C(=O)CO [PREDNISOLONE]
Cmax [2]: 458 ng/mL
Tmax [2]: 1.5 h
CL ([1]; po): 1 mL/min/kg
Excretion ([1]; po): 26%
Vd ([1]; po): 0.42 L/kg
t1/2 ([1]; po): 2.2 h
